Patent US9085555B2, “Complement pathway modulators and uses thereof” (priority 2011, dated 2015)
pIC50: −log10 of the molar value.

Target: Factor D (Homo sapiens (Human), UniProt P00746)
Assay: biochemical
Assay type: biochemical
Settings: read-out: IC50

Chain of Factor D (P00746 26-253): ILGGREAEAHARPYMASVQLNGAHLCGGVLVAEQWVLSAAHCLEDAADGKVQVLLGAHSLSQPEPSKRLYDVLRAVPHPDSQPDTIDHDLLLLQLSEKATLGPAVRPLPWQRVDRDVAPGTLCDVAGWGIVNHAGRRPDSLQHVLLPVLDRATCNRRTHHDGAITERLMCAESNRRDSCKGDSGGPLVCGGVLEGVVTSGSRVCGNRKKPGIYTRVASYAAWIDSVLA

| Compound | pIC50 |
| --- | --- |
| CC(=O)c1cn(CC(=O)N2C[C@@](F)(CN)C[C@H]2C(=O)NCc2cccc(Cl)c2F)c2ccccc12 [Example 607, (2S,4S)-1-[2-(3-Acetyl-indol-1-yl)-acetyl]-4-aminomethyl-4-fluoro-pyrrolidine-2-carboxylic acid 3-chloro-2-fluoro-benzylamide] | 7.55 |
| CC(=O)c1cn(CC(=O)N2C[C@H](F)C[C@H]2C(=O)NCc2cc(C#N)cc(Cl)c2F)c2ccccc12 [Example 498, (2S,4R)-1-[2-(3-Acetyl-indol-1-yl)-acetyl]-4-fluoro-pyrrolidine-2-carboxylic acid 3-chloro-5-cyano-2-fluoro-benzylamide] | 6.16 |
| (2S,4R)-4-Fluoro-pyrrolidine-1,2-dicarboxylic acid 1-[(3-carbamoyl-indolizin-1-yl)-amide]2-[(3-trifluoromethoxy-phenyl)-amide] [Example 122] | 6.82 |
| NC(=O)n1cc(NC(=O)N2C[C@@H](N)C[C@H]2C(=O)NCc2cccc(-c3ccccc3)c2)c2ccccc21 [Example 39, (2S,4S)-4-Amino-pyrrolidine-1,2-dicarboxylic acid 2-[(biphenyl-3-ylmethyl)-amide] 1-[(1-carbamoyl-1H-indol-3-yl)-amide]] | 5.98 |
| C[C@@]1(F)C[C@@H](C(=O)NCc2cccc(Cl)c2F)N(C(=O)Cn2cc(C(=O)C(F)(F)F)c3ccccc32)C1 [Example 554, (2S,4R)-4-Fluoro-4-methyl-1-{2-[3-(2,2,2-trifluoro-acetyl)-indol-1-yl]-acetyl}-pyrrolidine-2-carboxylic acid 3-chloro-2-fluoro-benzylamide] | 7.36 |
| Cc1nccc2c(C(N)=O)nn(CC(=O)N3[C@@H]4C[C@@H]4C[C@H]3C(=O)NCc3cccc(Cl)c3F)c12 [Example 694, 1-{2-[(1R,3S,5R)-3-(3-Chloro-2-fluoro-benzylcarbamoyl)-2-aza-bicyclo[3.1.0]hex-2-yl]-2-oxo-ethyl}-7-methyl-1H-pyrazolo[3,4-c]pyridine-3-carboxylic acid amide] | 7.77 |
| CC(=O)c1cn(CC(=O)N2[C@@H]3C[C@@H]3C[C@H]2C(=O)N[C@H](CCO)c2cccc(Cl)c2F)c2ncccc12 [Example 557, (1R,3S,5R)-2-[2-(3-Acetyl-pyrrolo[2,3-b]pyridin-1-yl)-acetyl]-2-aza-bicyclo[3.1.0] hexane-3-carboxylic acid [(R)-1-(3-chloro-2-fluoro-phenyl)-3-hydroxy-propyl]-amide] | 6.87 |
| NC(=O)n1cc(CC(=O)N2CCS[C@H]2C(=O)NCc2cccc(Cl)c2F)c2ccccc21 [Example 450, 3-{2-[(S)-2-(3-Chloro-2-fluoro-benzylcarbamoyl)-thiazolidin-3-yl]-2-oxo-ethyl}-indole-1-carboxylic acid amide] | 7.60 |
| COC(=O)c1ccc2c(c1)c(C(C)=O)cn2CC(=O)N1[C@@H]2C[C@@H]2C[C@H]1C(=O)NCc1cccc(Cl)c1F [Example 540, 3-Acetyl-1-{2-[(1R,3S,5R)-3-(3-chloro-2-fluoro-benzylcarbamoyl)-2-aza-bicyclo[3.1.0]hex-2-yl]-2-oxo-ethyl}-1H-indole-5-carboxylic acid methyl ester] | 6.63 |
| NC(=O)n1cc(NC(=O)N2C[C@H](F)C[C@H]2CNC(=O)Cc2ccccc2)c2ccccc21 [Example 113, 3-{[(2S,4R)-4-Fluoro-2-(phenylacetylamino-methyl)-pyrrolidine-1-carbonyl]-amino}-indole-1-carboxylic acid amide] | 5.94 |
| NC[C@]1(F)C[C@@H](C(=O)NCc2cccc(Cl)c2F)N(C(=O)Nc2cn(C(N)=O)c3ccccc23)C1 [Example 408, 2S,4R)-4-Aminomethyl-4-fluoro-pyrrolidine-1,2-dicarboxylic acid 1-[(1-carbamoyl-1H-indol-3-yl)-amide]2-(3-chloro-2-fluoro-benzylamide] | 5.85 |
